This is an account of results in patent publication US9587005B2 (priority 2010, dated 2017).

One may read the EC50 as the concentration giving half of the maximal effect. Read a high EC50 as weaker potency.

Common to all, as to assay type: cell-based
One experiment concerns the target T1, GIP receptor (Homo sapiens, UniProt P48546).
T1 sequence (P48546 22-466): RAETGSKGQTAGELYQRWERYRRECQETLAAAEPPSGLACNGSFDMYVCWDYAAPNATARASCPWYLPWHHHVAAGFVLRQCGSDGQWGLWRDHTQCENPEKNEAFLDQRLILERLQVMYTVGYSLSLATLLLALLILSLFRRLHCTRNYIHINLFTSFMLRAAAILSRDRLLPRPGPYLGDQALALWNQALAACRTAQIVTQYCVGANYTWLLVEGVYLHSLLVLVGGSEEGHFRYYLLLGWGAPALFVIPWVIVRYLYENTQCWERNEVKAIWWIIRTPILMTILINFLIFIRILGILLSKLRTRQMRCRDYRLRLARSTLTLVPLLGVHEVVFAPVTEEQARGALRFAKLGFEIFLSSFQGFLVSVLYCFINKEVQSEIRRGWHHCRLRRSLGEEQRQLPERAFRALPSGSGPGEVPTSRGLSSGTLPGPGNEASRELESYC
Nature of the experiment: cAMP induction, firefly luciferase reporter assay in HEK293 cells co-transfected with GIP receptor.

A further experiment addresses T2, glucagon receptor (Homo sapiens, UniProt P47871).
T2 construct: expressed in transfected cells; host or cells: HEK293
Nature of the experiment: cAMP induction, firefly luciferase reporter assay in HEK293 cells co-transfected with glucagon receptor. The text has this:
(§1) This example describes an exemplary method of testing the biological activity of the peptides of the present disclosures, which method involves assaying cAMP synthesis.
(In general: In a reporter assay the amount or activity of a reporter protein is the signal.)

The next experiment concerns the target T3, GLP-1 receptor (Homo sapiens, UniProt P43220).
T3 construct: expressed in transfected cells; host or cells: HEK293
Nature of the experiment: cAMP induction, firefly luciferase reporter assay in HEK293 cells co-transfected with GLP-1 receptor.
From the text: as §1

Like-named read-outs stand apart in the source and are kept apart here. *1 amine or outer side, *2 acyl side, *3 side chain or, on linkers, in order; H or OH if unused. Where no end group is shown, it is not given here. Side-chain parts run from the residue outwards. [ ]: non-standard residue; d: D form. The star is where a group is joined. Phe(4-NH2) = Nc1ccc(C[C@H](N)C(=O)O)cc1; γGlu = O=C(O)[C@H](CCC(=O)[*:2])N[*:1]; X3 = CCCCCCCCCCCCCCC(CC(=O)*)C(=O)O; Palmitoyl = CCCCCCCCCCCCCCCC(=O)*; Aib = CC(C)(N)C(=O)O

T2 sequence (P47871 26-477): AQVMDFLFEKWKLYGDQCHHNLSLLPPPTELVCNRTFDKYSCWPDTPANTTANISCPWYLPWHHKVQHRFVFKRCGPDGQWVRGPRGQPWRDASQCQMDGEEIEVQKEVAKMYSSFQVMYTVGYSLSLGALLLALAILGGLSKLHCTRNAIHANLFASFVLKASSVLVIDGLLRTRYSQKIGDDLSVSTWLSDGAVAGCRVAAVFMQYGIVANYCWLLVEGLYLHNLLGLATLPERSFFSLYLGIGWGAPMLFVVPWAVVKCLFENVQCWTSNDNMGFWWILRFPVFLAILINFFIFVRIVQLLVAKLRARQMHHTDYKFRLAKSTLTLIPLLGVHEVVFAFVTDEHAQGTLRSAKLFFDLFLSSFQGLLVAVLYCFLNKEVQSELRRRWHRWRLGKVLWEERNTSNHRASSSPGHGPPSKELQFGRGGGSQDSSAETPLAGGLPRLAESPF
T3 sequence (P43220 24-463): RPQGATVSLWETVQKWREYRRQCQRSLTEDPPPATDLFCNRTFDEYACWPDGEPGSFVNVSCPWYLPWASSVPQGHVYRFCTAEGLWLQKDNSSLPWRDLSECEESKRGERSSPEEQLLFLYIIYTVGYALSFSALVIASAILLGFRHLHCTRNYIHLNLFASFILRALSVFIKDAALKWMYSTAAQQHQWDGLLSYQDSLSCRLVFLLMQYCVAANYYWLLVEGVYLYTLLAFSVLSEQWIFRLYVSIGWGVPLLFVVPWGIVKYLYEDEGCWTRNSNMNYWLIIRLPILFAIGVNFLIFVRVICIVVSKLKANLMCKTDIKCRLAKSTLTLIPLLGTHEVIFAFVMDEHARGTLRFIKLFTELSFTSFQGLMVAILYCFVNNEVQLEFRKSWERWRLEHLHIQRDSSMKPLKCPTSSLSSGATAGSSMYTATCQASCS

Take “H[Aib]QGTFTSDYSKYLDERAAQDFVQWLLDGGPSSGAPPPSK(X3)G-NH2 [SEQ ID NO: 176]”: the EC50 on GIP receptor (GIP-1 Receptor EC50, Table 10, Example 16) was 101 pM; on glucagon receptor, 12 pM; at GLP-1 receptor (GLP-1 Receptor EC50, Table 10, Example 16), 14 pM.

As for “H[Aib]QGTFTSDYSKYLDERAAQDFVQWLLDGGPSSGAPPPS[Phe(4-NH2)]([γGlu-γGlu-Palmitoyl])G-NH2 [SEQ ID NO: 145]”, the results for the concentration giving a half-maximal response (EC50) on GIP receptor, on glucagon receptor and on GLP-1 receptor were 17 pM, 2 pM and 2 pM, respectively.
